# Assay results: PMC7187627 (Antimicrobial Agents and Chemotherapy, 2019)
# Experiment: Safety and tolerability (adverse events, laboratory tests, ECG), multiple-ascending-dose phase 1 study
# Format: in vivo
# Settings: all TEAEs
# Excerpt: Subjects were monitored closely with serial physical examinations, blood evaluations, and 12-lead ECGs. Subjects underwent safety laboratory testing, including measurement of blood cell counts (white blood cell [WBC] with differential, hemoglobin, and platelets), serum chemistry (sodium, potassium, chloride, calcium, bicarbonate, glucose, creatinine, blood urea nitrogen [BUN], creatine kinase [CK], aspartate aminotransferase [AST], alanine aminotransferase [ALT], alkaline phosphatase [ALP], total bilirubin, protein, albumin, amylase, and lipase) and urinalysis (protein, blood, and glucose). Study halting criteria had been established and were reviewed by an independent safety monitor (ISM) and the Safety Monitoring Committee (SMC) prior to proceeding with dosing within a cohort or to the next cohort.
# The safety population included all subjects who received at least one dose of the study drug. The safety and tolerability of CRS3123 were evaluated by the sequential review of reported adverse events (AEs), changes from baseline in physical examination findings, vital sign measurements, safety laboratory tests (hematology, clinical chemistry, and urinalysis), and key 12-lead ECG findings. All safety assessments were summarized with descriptive statistics or frequency counts.
# The period of observation for AE reporting began on day 1 at the time of study drug administration and continued through the final visit.
# All AEs were coded to system organ class (SOC) and preferred term (PT) using the Medical Dictionary for Regulatory Activities (MedDRA), version 17.0 (https://www.meddra.org/). A treatment-emergent AE (TEAE) was defined as any AE that occurred during the study observation period (i.e., from day 1 at the time of study drug administration through the final visit). An AE with a partial onset date was classified as a TEAE if the reported partial onset date could not definitely be identified as before the date of study drug administration. Any AE with a missing onset date or missing time on day of study drug administration was classified as a TEAE.
# To count the overall number of subjects who experienced each TEAE and calculation of an occurrence rate, a subject experiencing multiple occurrences of an AE was counted only once for that PT. Similarly, if a subject experienced multiple TEAEs within the same SOC, that subject was counted once to calculate an occurrence rate for the SOC. To count the number of subjects who experienced each TEAE by severity classification (mild, moderate, severe, and life-threatening) and calculate an occurrence rate, a subject experiencing multiple occurrences of an AE of the same severity was counted once in that particular severity classification for that PT. If a subject experienced multiple occurrences of an AE of differing severities, only the most severe occurrence within each PT was counted.
smiles,measurement,setting,value
O=c1cc(NCCCN[C@@H]2CCOc3c(Br)cc(Br)cc32)[nH]c2ccsc12 [CRS3123],No. (%) of subjects: Aspartate aminotransferase increased,"Cohort A, 200 mg Q12h (n = 8)",0 (0.0)
same,No. (%) of subjects: Blood bilirubin increased,"Cohort A, 200 mg Q12h (n = 8)",0 (0.0)
same,No. (%) of subjects: Blood calcium increased,"Cohort A, 200 mg Q12h (n = 8)",0 (0.0)
same,No. (%) of subjects: Blood potassium increased,"Cohort A, 200 mg Q12h (n = 8)",0 (0.0)
same,"No. (%) of subjects: Blood pressure, diastolic, decreased","Cohort A, 200 mg Q12h (n = 8)",0 (0.0)
same,"No. (%) of subjects: Blood pressure, diastolic, increased","Cohort A, 200 mg Q12h (n = 8)",0 (0.0)
same,"No. (%) of subjects: Blood pressure, systolic, decreased","Cohort A, 200 mg Q12h (n = 8)",0 (0.0)
same,"No. (%) of subjects: Blood pressure, systolic, increased","Cohort A, 200 mg Q12h (n = 8)",0 (0.0)
same,No. (%) of subjects: Diarrhea,"Cohort A, 200 mg Q12h (n = 8)",0 (0.0)
same,No. (%) of subjects: Dry skin,"Cohort A, 200 mg Q12h (n = 8)",0 (0.0)
same,No. (%) of subjects: Dysgeusia,"Cohort A, 200 mg Q12h (n = 8)",0 (0.0)
same,No. (%) of subjects: Ear and labyrinth disorders (system organ class),"Cohort A, 200 mg Q12h (n = 8)",1 (12.5)
same,No. (%) of subjects: Ear discomfort,"Cohort A, 200 mg Q12h (n = 8)",1 (12.5)
same,No. (%) of subjects: Erythema,"Cohort A, 200 mg Q12h (n = 8)",0 (0.0)
same,No. (%) of subjects: Gastrointestinal disorders (system organ class),"Cohort A, 200 mg Q12h (n = 8)",0 (0.0)
same,No. (%) of subjects: General disorders and administration site conditions (system organ class),"Cohort A, 200 mg Q12h (n = 8)",0 (0.0)
same,No. (%) of subjects: Headache,"Cohort A, 200 mg Q12h (n = 8)",1 (12.5)
same,No. (%) of subjects: Hemoglobin decreased,"Cohort A, 200 mg Q12h (n = 8)",2 (25.0)
same,No. (%) of subjects: Infections and infestations (system organ class),"Cohort A, 200 mg Q12h (n = 8)",1 (12.5)
same,No. (%) of subjects: Infusion site thrombosis,"Cohort A, 200 mg Q12h (n = 8)",0 (0.0)
same,"No. (%) of subjects: Injury, poisoning, and procedural complications (system organ class)","Cohort A, 200 mg Q12h (n = 8)",1 (12.5)
same,No. (%) of subjects: Investigations (system organ class),"Cohort A, 200 mg Q12h (n = 8)",5 (62.5)
same,No. (%) of subjects: Lipase increased,"Cohort A, 200 mg Q12h (n = 8)",1 (12.5)
same,No. (%) of subjects: Musculoskeletal and connective tissue disorders (system organ class),"Cohort A, 200 mg Q12h (n = 8)",0 (0.0)
same,No. (%) of subjects: Myalgia,"Cohort A, 200 mg Q12h (n = 8)",0 (0.0)
same,No. (%) of subjects: Nervous system disorders (system organ class),"Cohort A, 200 mg Q12h (n = 8)",1 (12.5)
same,No. (%) of subjects: Oropharyngeal pain,"Cohort A, 200 mg Q12h (n = 8)",0 (0.0)
same,No. (%) of subjects: Psychiatric disorders (system organ class),"Cohort A, 200 mg Q12h (n = 8)",1 (12.5)
same,"No. (%) of subjects: Respiratory, thoracic, and mediastinal disorders (system organ class)","Cohort A, 200 mg Q12h (n = 8)",0 (0.0)
same,No. (%) of subjects: Skin and subcutaneous tissue disorders (system organ class),"Cohort A, 200 mg Q12h (n = 8)",0 (0.0)
same,No. (%) of subjects: Subjects with TEAEs,"Cohort A, 200 mg Q12h (n = 8)",8 (100.0)
same,No. (%) of subjects: Throat irritation,"Cohort A, 200 mg Q12h (n = 8)",0 (0.0)
same,No. (%) of subjects: Upper respiratory tract infection,"Cohort A, 200 mg Q12h (n = 8)",1 (12.5)
same,No. (%) of subjects: White blood cell count increased,"Cohort A, 200 mg Q12h (n = 8)",0 (0.0)
same,No. (%) of subjects: Alanine aminotransferase increased,"Cohort B, 400 mg Q12h (n = 8)",0 (0.0)
same,No. (%) of subjects: Amylase increased,"Cohort B, 400 mg Q12h (n = 8)",1 (12.5)
same,No. (%) of subjects: Anxiety,"Cohort B, 400 mg Q12h (n = 8)",0 (0.0)
same,No. (%) of subjects: Arthropod bite,"Cohort B, 400 mg Q12h (n = 8)",0 (0.0)
same,No. (%) of subjects: Aspartate aminotransferase increased,"Cohort B, 400 mg Q12h (n = 8)",0 (0.0)
same,No. (%) of subjects: Blood bilirubin increased,"Cohort B, 400 mg Q12h (n = 8)",0 (0.0)
same,No. (%) of subjects: Blood calcium increased,"Cohort B, 400 mg Q12h (n = 8)",1 (12.5)
same,No. (%) of subjects: Blood potassium increased,"Cohort B, 400 mg Q12h (n = 8)",1 (12.5)
same,"No. (%) of subjects: Blood pressure, diastolic, decreased","Cohort B, 400 mg Q12h (n = 8)",0 (0.0)
same,"No. (%) of subjects: Blood pressure, diastolic, increased","Cohort B, 400 mg Q12h (n = 8)",0 (0.0)
same,"No. (%) of subjects: Blood pressure, systolic, decreased","Cohort B, 400 mg Q12h (n = 8)",0 (0.0)
same,"No. (%) of subjects: Blood pressure, systolic, increased","Cohort B, 400 mg Q12h (n = 8)",0 (0.0)
same,No. (%) of subjects: Diarrhea,"Cohort B, 400 mg Q12h (n = 8)",2 (25.0)
